Here are results for 25 molecules from EP4227307A1 (Genzyme Corporation, priority 2022, dated 2023).

Where a name gives a salt, the structure may show the parent alone.

The experiment has as its target T1, human recombinant 6His-Nterm SHP2 full-length (Thr2-Arg593) (Homo sapiens, UniProt Q06124).
T1 construct: 6His-Nterm SHP2 full-length (Thr2-Arg593, R&D system); 6His (N); purchased R&D system
T1 sequence (Q06124 2-593): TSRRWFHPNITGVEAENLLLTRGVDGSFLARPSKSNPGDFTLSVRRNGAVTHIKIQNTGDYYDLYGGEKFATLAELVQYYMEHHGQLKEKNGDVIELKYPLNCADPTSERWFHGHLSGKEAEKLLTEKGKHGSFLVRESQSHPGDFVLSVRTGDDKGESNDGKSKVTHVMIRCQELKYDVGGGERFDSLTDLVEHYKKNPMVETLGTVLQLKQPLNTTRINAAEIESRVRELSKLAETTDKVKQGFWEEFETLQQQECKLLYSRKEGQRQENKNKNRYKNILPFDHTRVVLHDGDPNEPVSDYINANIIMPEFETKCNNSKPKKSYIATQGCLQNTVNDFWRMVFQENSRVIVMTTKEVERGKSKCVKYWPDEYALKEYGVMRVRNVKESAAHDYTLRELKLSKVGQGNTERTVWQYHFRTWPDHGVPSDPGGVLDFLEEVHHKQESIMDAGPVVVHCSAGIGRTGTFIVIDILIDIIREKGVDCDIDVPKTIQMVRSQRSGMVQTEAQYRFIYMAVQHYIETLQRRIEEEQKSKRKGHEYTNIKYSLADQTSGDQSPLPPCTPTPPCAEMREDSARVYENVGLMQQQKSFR
As to the kind of experiment: SHP2 Phosphatase Assay (DiFMUP fluorescence). It counts as biochemical. The following applies: SHP2 0.2 nM pre-incubated with 100 nM bi-phosphorylated activating peptide; compound 1000-0.05 nM, 30 min pre-incubation; DiFMUP 20 µM, 45 min, room temperature; 10-concentration dose-response. In short, it runs like this: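 SHP2 (0.2 nM) preactivated ≥10 min with 100 nM bis-phosphorylated peptide, then 30 min with compound (10 concentrations, 1000–0.05 nM) at room temperature, pH 7.2 HEPES buffer with DTT. DiFMUP (20 µM, added solution) reacted 45 min, pervanadate-stopped; fluorescence 350/450 nm. IC50 by 4-parameter logistic fit.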
As to `Cc1nc(N2CCC3(CC2)Nc2ccccc2[C@H]3N)c2ccnn2c1-c1ccccc1F` [Compound 153, (3R)-1'-[7-(2-fluorophenyl)-6-methyl-pyrazolo[1,5-a]pyrazin-4-yl]spiro[indoline-2,4'-piperidine]-3-amine hydrochloride], the IC50 turned out to be 15 nM.

For the molecule `Cc1nc(N2CCC3(CC2)Cc2ncccc2[C@H]3N)c2ccnn2c1-c1cccc(F)c1C` [Compound 197, (5S)-1'-[7-(3-fluoro-2-methyl-phenyl)-6-methyl-pyrazolo[1,5-a]pyrazin-4-yl]spiro[5,7-dihydrocyclopenta[b]pyridine-6,4'-piperidine]-5-amine], the 50% inhibitory concentration (IC50) amounted to 7 nM.

As to `COc1cnc2c(c1)[C@@H](N)C1(CCN(c3nc(C)c(-c4cccc(F)c4F)n4nccc34)CC1)C2` [Compound 24, (5S)-1'-[7-(2,3-difluorophenyl)-6-methyl-pyrazolo[1,5-a]pyrazin-4-yl]-3-methoxy-spiro[5,7-dihydrocyclopenta[b]pyridine-6,4'-piperidine]-5-amine], the IC50 was 11 nM.

Consider `Cc1nc(N2CCC3(CC2)Cc2nc(CO)ccc2[C@H]3N)c2ccnn2c1-c1ccccc1` [Compound 223, [(5S)-5-amino-1'-(6-methyl-7-phenyl-pyrazolo[1,5-a]pyrazin-4-yl)spiro[5,7-dihydrocyclopenta[b]pyridine-6,4'-piperidine]-2-yl]methanol], for which the IC50 was found to be 13 nM.

For the molecule `Cc1nc(N2CCC3(CC2)Cc2ncccc2[C@H]3N)c2ccnn2c1-c1ccc2c(c1)OCCO2` [Compound 183, (5S)-1'-[7-(2,3-dihydro-1,4-benzodioxin-6-yl)-6-methyl-pyrazolo[1,5-a]pyrazin-4-yl]spiro[5,7-dihydrocyclopenta[b]pyridine-6,4'-piperidine]-5-amine], the IC50 was 3 nM.

As to `Cc1nc(N2CCC3(CC2)Cc2ncccc2[C@H]3N)c2ccnn2c1-c1ccccc1` [Compound 39, (5S)-1'-(6-methyl-7-phenyl-pyrazolo[1,5-a]pyrazin-4-yl)spiro[5,7-dihydrocyclopenta[b]pyridine-6,4'-piperidine]-5-amine], the IC50 amounted to 5 nM.

`Cc1nccc(-c2c(C)nc(N3CCC4(CC3)Cc3ncc(F)cc3[C@H]4N)c3ccnn23)c1Cl` [Compound 28, (5S)-1'-[7-(3-chloro-2-methyl-4-pyridyl)-6-methyl-pyrazolo[1,5-a]pyrazin-4-yl]-3-fluoro-spiro[5,7-dihydrocyclopenta[b]pyridine-6,4'-piperidine] -5-amine]: the IC50 is 15 nM.

With `COc1ccc(Cl)c(-c2c(C)nc(N3CCC4(CC3)Cc3ncccc3[C@H]4N)c3ccnn23)c1` [Compound 173, (5S)-1'-[7-(2-chloro-5-methoxy-phenyl)-6-methyl-pyrazolo[1,5-a]pyrazin-4-yl]spiro[5,7-dihydrocyclopenta[b]pyridine-6,4'-piperidine]-5-amine], the IC50 was 15 nM.

For the molecule `Cc1nc(N2CCC3(CC2)Oc2ncccc2[C@H]3N)c2ccnn2c1-c1ccc(F)c2cc[nH]c12` [Compound 16, (3R)-1'-[7-(4-fluoro-1H-indol-7-yl)-6-methyl-pyrazolo[1,5-a]pyrazin-4-yl]spiro[3H-furo[2,3-b]pyridine-2,4'-piperidine]-3-amine], the IC50 is 42 nM.

In the case of `Cc1nc(N2CCC3(CC2)Cc2ncccc2[C@H]3N)c2ccnn2c1C1CC1` [Compound 210, (5S)-1'-(7-cyclopropyl-6-methyl-pyrazolo[1,5-a]pyrazin-4-yl)spiro[5,7-dihydrocyctopenta[b]pyridine-6,4'-piperidine]-5-amine], the IC50 was above 1000 nM.

Regarding `Cc1nc(N2CCC3(CC2)Cc2ncccc2[C@H]3N)c2c(F)cnn2c1-c1ccccc1F` [Compound 142, (5S)-1'-[3-fluoro-7-(2-fluorophenyl)-6-methyl-pyrazolo [1,5-a]pyrazin-4-yl]spiro[5,7-dihydrocyclopenta[b]pyridine-6,4'-piperidine]-5-amine hydrochloride], the half-maximal inhibitory concentration (IC50) worked out at 26 nM.

With `Cc1nc(N2CCC3(CC2)Cc2ncccc2[C@@H]3N)c2ccnn2c1-c1ccccc1` [Compound 141, (5R)-1'-(6-methyl-7-phenyl-pyrazolo[1,5-a]pyrazin-4-yl)spiro[5,7-dihydrocyclopenta[b]pyridine-6,4'-piperidine]-5-amine], the IC50 was found to be 853 nM.

Consider `Cc1ccc(-c2c(C)nc(N3CCC4(CC3)Cc3ncccc3[C@H]4N)c3ccnn23)c(F)c1` [Compound 186, (5S)-1'-[7-(2-fluoro-4-methyl-phenyl)-6-methyl-pyrazolo[1,5-a]pyrazin-4-yl]spiro[5,7-dihydrocyclopenta[b]pyridine-6,4'-piperidine]-5-amine], for which the IC50 worked out at 2 nM.

In the case of `Cc1nc(N2CCC3(CC2)Cc2ncccc2[C@H]3N)c2ccnn2c1-c1cccc(Cl)c1Cl` [Compound 192, (5S)-1'-[7-(2,3-dichlorophenyl)-6-methyl-pyrazolo[1,5-a]pyrazin-4-yl]spiro[5,7-dihydrocyclopenta[b]pyridine-6,4'-piperidine]-5-amine], the IC50 was found to be 2 nM.

For the molecule `Cc1nc2c(s1)[C@@H](N)C1(CCN(c3nc(C)c(-c4ccccc4F)n4nccc34)CC1)C2` [Compound 83, (6S)-1'-[7-(2-fluorophenyl)-6-methyl-pyrazolo[1,5-a]pyrazin-4-yl]-2-methyl-spiro[4,6-dihydrocyclopenta[d]thiazole-5,4'-piperidine]-6-amine hydrochloride], the IC50 came to 10 nM.

On to `Cc1cc2c(cn1)CC1(CCN(c3nc(C)c(-c4ccccc4)n4nccc34)CC1)[C@@H]2N` [Compound 114, (5S)-3-methyl-1'-(6-methyl-7-phenyl-pyrazolo[1,5-a]pyrazin-4-yl)spiro[5,7-dihydrocyclopenta[c]pyridine-6,4'-piperidine]-5-amine hydrochloride], for which the IC50 came to 10 nM.

As to `Cc1ccc2c(n1)CC1(CCN(c3nc(C)c(-c4ccccc4)n4nccc34)CC1)[C@@H]2N` [Compound 107, (5 S)-2-methyl-1'-(6-methyl-7-phenyl-pyrazolo[1,5-a]pyrazin-4-yl)spiro[5,7-dihydrocyclopenta[b]pyridine-6,4'-piperidine]-5-amine hydrochloride], the half-inhibitory concentration (IC50) was found to be 12 nM.

Take `Cc1nc(N2CCC3(CC2)Cc2ncccc2[C@H]3N)c2ccnn2c1-c1ccsc1Cl` [Compound 54, (5S)-1'-[7-(2-chloro-3-thienyl)-6-methyl-pyrazolo[1,5-a]pyrazin-4-yl]spiro[5,7-dihydrocyclopenta[b]pyridine-6,4'-piperidine]-5-amine]: the concentration for half-maximal inhibition (IC50) came to 4 nM.

As for `Cc1nc(N2CCC3(CC2)Cc2ncccc2[C@H]3N)c2ccnn2c1-c1ccc(Cl)s1` [Compound 53, (5S)-1'-[7-(5-chloro-2-thienyl)-6-methyl-pyrazolo[1,5-a]pyrazin-4-yl]spiro[5,7-dihydrocyclopenta[b]pyridine-6,4'-piperidine]-5-amine], the IC50 came to 3 nM.

On to `Cc1nc(N2CCC3(CC2)[C@H](N)c2ccccc2N3C)c2ccnn2c1-c1ccccc1F` [Compound 155, (3R)-1'-[7-(2-fluorophenyl)-6-methyl-pyrazolo[1,5-a]pyrazin-4-yl]-1-methyl-spiro [indoline-2,4'-piperidine]-3-amine], for which the IC50 turned out to be 202 nM.

Consider `COc1cccc(-c2cnc(N3CCC4(CC3)Cc3ncccc3[C@H]4N)c3ccnn23)c1F` [Compound 85, (5S)-1'-[7-(2-fluoro-3-methoxyphenyl)pyrazolo[1,5-a]pyrazin-4-yl]spiro[5,7-dihydrocyclopenta[b]pyridine-6,4'-piperidine] -5-amine hydrochloride], for which the IC50 stood at 27 nM.

`Cc1nc(N2CCC3(CC2)Cc2ncccc2[C@H]3N)c2ccnn2c1-c1ccnc(C(F)(F)F)c1F` [Compound 41, (5S)-1'-[7-[3-fluoro-2-(trifluoromethyl)-4-pyridyl]-6-methyl-pyrazolo[1,5-a]pyrazin-4-yl]spiro[5,7-dihydrocyclopenta[b]pyridine-6,4'-piperidine]-5-amine]: the IC50 is 15 nM.

In the case of `Cc1nc(N2CCC3(CC2)Cc2c(F)cccc2[C@H]3N)c2ccnn2c1-c1ccccc1F` [Compound 93, (1S)-4-fluoro-1'-[7-(2-fluorophenyl)-6-methyl-pyrazolo[1,5-a]pyrazin-4-yl]spiro[indane-2,4'-piperidine]-1-amine hydrochloride], the IC50 was determined as 46 nM.

For the molecule `Cc1cc2c(cn1)CC1(CCN(c3nc(C)c(-c4ccnc(C)c4F)n4nccc34)CC1)[C@@H]2N` [Compound 116, (5S)-1'-[7-(3-fluoro-2-methyl-4-pyridyl)-6-methyl-pyrazolo[1,5-a]pyrazin-4-yl]-3-methyl-spiro[5,7-dihydrocyclopenta[c]pyridine-6,4'-piperidine]-5-amine], the IC50 was determined as 8 nM.

`Cc1nc(N2CCC3(CC2)Cc2cc(CO)ncc2[C@H]3N)c2ccnn2c1-c1ccccc1F` [Compound 59, [(7S)-7-amino-1'-[7-(2-fluorophenyl)-6-methyl-pyrazolo[1,5-a]pyrazin-4-yl]spiro[5,7-dihydrocyclopenta[c]pyridine-6,4'-piperidine]-3-yl]methanol]: the concentration for half-maximal inhibition (IC50) amounted to 11 nM.
